Data published in patent publication US20110093959A1, “CRYPTOTIS PARVA SCREENING MODEL FOR ANTIEMETIC POTENTIAL” (priority 2008, published 2011).
Where “and” joins values, the source holds several entries; their conditions need not be identical. Equal values may be shown once.

Assays:
Assay type in all cases: in vivo, Cryptotis parva
[1] = test system: 5-HT, 5-HIAA, dopamine and HVA tissue levels; experiment: Monoamine and metabolite tissue levels after CIS (HPLC-ECD); conditions: for increase in brainstem 5-HT tissue level vs vehicle: CIS 10 mg/kg i.p.; for frontal cortex 5-HIAA level: not significantly different from vehicle
Description: (§1) These parameters were used in our neurochemical studies. Prior to experimentation, shrews were habituated to the laboratory environment as described for the behavioral studies. […] Subgroups of each treatment were sacrificed by rapid decapitation at either 2 hr or 33 hr post-injection.
Brains were rapidly removed and dissected on an ice-cold petri dish, the frontal cortex and brainstem were immediately frozen on dry-ice and stored at […] until analysis. Likewise, each gut was rapidly removed and washed with ice-cold saline three times prior to sectioning into succeeding 2 cm portions starting from the end of the stomach (duodenal and jejunal sections, respectively), followed by rapid freezing as described above. Each frontal cortex, brainstem and intestinal sample was respectively homogenized (tissue tearer, setting 5 sec for 15 sec) in 1 ml, 2 ml, or 3 ml ice-cold 0.2 M perchloric acid respectively containing 0.3 M ethylenediamine-tetraacetic acid disodium (EDTA). A 0.1 ml portion of each homogenate was removed for protein analysis. The protein concentration was determined by the use of BCA protein assay kit (Pierce; Rockford, Ill.). Then, homogenates were centrifuged at 40,000 g for 30 min at 4° C. to precipitate protein. The supernatant was filtered through a 0.2 μm nylon filter in a microcentrifuge tube at 1,500 g for 10 min at 4° C. A 10 μl aliquot of each filtered supernatant was assayed for the presence of monoamines and their metabolites.
Monoamines and their metabolites were analyzed by high performance liquid chromatography with electrochemical detection (HPLC-ECD) based upon our established method (Darmani et al., 2003). Separation of 5-HT, dopamine and their corresponding metabolites (5-HIAA and HVA) from other electroactive compounds was achieved on a 10 cm×3.2 mm RP-C18 column (ODS 3 um packing; BAS Inc., W. Lafayette, Ind.) and a mobile phase containing 0.15 M chloroacetic acid, 0.12 M sodium hydroxide, 0.18 mM ethylenediamine-tetraacetic acid disodium (EDTA), 1.1 mM sodium octane sulfonic acid and 5% acetonitrile. The monoamines and their metabolites were separated and measured through the cited column via a Shumadzu L-ECD-6A detector, connected to a Shimadzu LC-10 AD pump and a C-R7Ae chromatopac integrator (Kyoto, Japan). The glassy carbon working electrode was set at a potential of 650 mV relative to an Ag/AgCl reference electrode. The detection limit for dopamine and 5-HT were 2 and 5 pg respectively, based on a signal to noise ratio of 3:1. Peak heights of unknowns were compared to the mean peak heights of a 200 pg standard solution (containing 5-HT, dopamine, 5-HIAA and HVA) which were run daily after every fifth tissue supernatant sample. The intestinal HVA concentrations could not be determined due to an unknown interfering peak in the gut tissue eluates.
(§2) When a significant dose and exposure interaction was found, then simple effects at a particular emesis phase was tested via a one-way ANOVA. Neurochemical data were initially analyzed by two-way analysis of variance (ANOVA) with drug dose (0 mg/kg and 10 mg/kg) and exposure time (2 hr and 33 hr) as factors. […] For each statistical test, a P value of<0.05 was necessary to achieve statistical significance.

Least Shrew = experiment: CIS dose-response emesis, abdominal contractions and feeding, 47-hour observation; conditions: for total frequency of emesis vs vehicle control: immediate and delayed phases
Source text: During the dark night phase a red light bulb was used to illuminate the shrew cage.
To habituate the shrews to the test environment, each animal was randomly selected and transferred to a 14×17×12 cm clean opaque plastic cage and was offered ten mealworms 1 hr prior to experimentation. […] Immediately following injection, each shrew was returned to its cage and their behaviors were videotaped for the next 47 hr. Animals were allowed ad libitum access to food (mealworms) and water. Food supply was maintained by making sure that two meal worms were always available in the cage throughout the observation time. Water was available throughout the experiment via small plastic container (1 cm in diameter and 0.5 cm in height) glued to the floor of each cage. The mean frequencies (±SEM) of vomitings (wet, dry and total) and abdominal contractions per hour and the number of mealworms eaten per hour, were scored separately from videotape recordings for each individual shrew for the entire observation period by a trained observer blind to the experimental conditions.
as §2

[2] = test system: substance P tissue levels; experiment: Substance P tissue levels after CIS (EIA)
Description: as §1
Preliminary sample preparation procedures were carried out to optimize detection conditions in accord with our published methods (Darmani et al., 2008). […] As proteases can be also deactivated by heat, at basic pH and in the presence of EDTA (Darmani et al., 2008), the entire intestine was immediately immersed in a 70° C. preheated for 5 min, 5 ml solution of normal saline containing […] EDTA at pH 8.0 in accordance to published methods (Darmani et al., 2008). Each sample was allowed to cool down naturally to room temperature and then each gut was thrice flushed and rinsed with 5 ml of the cited saline solution. Then, each gut was dissected and the duodenum and jejunum samples were placed separately in test tubes containing 1 ml assay buffer. The dissected frontal cortex and brainstem samples were placed in different test tubes containing 0.5 ml assay buffer. Each sample was homogenized using a tissue tearer (Biospec) set at level 5 for 15 sec. The homogenates were then centrifuged at 17,000×g for 15 min at 4° C. The supernatants were obtained and saved at […] until used for the EIA detection of SP. Samples were analyzed for SP using the “Correlate-EIA” kit from Assay Designs using a microplate reader.
as §2

[3] = CIS 0 and 10 mg/kg, 2 and 33 hour
[4] = CIS 10 mg/kg, i.p., post exposure
[5] = CIS 10 mg/kg, 2 hour (immediate phase)
[6] = CIS 10 mg/kg, 33 hour (delayed phase)

SMILES: N.N.[Cl][Pt][Cl] [CIS, cis-platinum(II)diamine dichloride]
- brainstem dopamine levels [1, 3]: no overall significant effect
- duodenum dopamine levels [1, 3]: no overall significant effect
- frontal cortex serotonin levels [1, 3]: no significant overall effect
- duodenal tissue concentration of 5-HIAA ([1]; CIS 10 mg/kg): not significantly altered
- increase in jejunal dopamine concentration ([1]; CIS 10 mg/kg at 33 hour vs 0 mg/kg control at 2 hour): 121%
- increase in jejunal dopamine concentration ([1]; CIS 10 mg/kg at 33 hour vs 0 mg/kg control at 33 hour): 171%
- frontal cortex HVA at 33 hour less than at 2 hour ([1]; CIS 10 mg/kg dose): 32.4%
- jejunal 5-HT at 2 hour smaller than at 33 hours ([1]; CIS 10 mg/kg dose): 114.5%
- brainstem 5-HT level at 33 hour greater than at 2 hour ([1]; CIS 10 mg/kg group): 33.9%
- brainstem HVA at 33 hour greater than at 2 hour ([1]; CIS 10 mg/kg group): 37%
- increase in brainstem 5-HT tissue level vs vehicle ([1]; 2 hour): 68.2%
- increase in brainstem 5-HT tissue level vs vehicle ([1]; 33 hour): 25%
- duodenal 5-HT concentrations ([1]; CIS 10 mg/kg, 2 and 33 hour): not significantly altered
- frontal cortex dopamine tissue level vs control ([1]; CIS 10 mg/kg, 2 hour): significant increase
- increase in brainstem 5-HIAA level vs vehicle ([1]; CIS 10 mg/kg, 2 hour): 43.8%
- increase in brainstem HVA levels vs control ([1]; CIS 10 mg/kg, 2 hour): 65.5%
- increase in jejunal 5-HIAA concentration vs control ([1]; CIS 10 mg/kg, 2 hour): 32.4%
- reduction of jejunal 5-HT tissue concentration vs control ([1]; CIS 10 mg/kg, 2 hour): 49.1%
- frontal cortex 5-HIAA level ([1]; CIS 10 mg/kg, 2 hour): 1.1±0.07
- decrease in frontal cortex HVA concentration vs vehicle ([1]; CIS 10 mg/kg, 33 hour): 35.9%
- increase in brainstem 5-HIAA level vs vehicle ([1]; CIS 10 mg/kg, 33 hour): 26.7%
- increase of jejunal 5-HT tissue concentration vs control ([1]; CIS 10 mg/kg, 33 hour): ~50% and 41.8%
- frontal cortex 5-HIAA level ([1]; CIS 10 mg/kg, 33 hour): 0.91±0.11
- increase in brainstem HVA levels vs control ([1]; CIS 10 mg/kg, 33 hours): 27.7%
- duodenal 5-HT at 33 hours greater than at 2 hour ([1]; CIS-treated animals): 48.5%
- brainstem 5-HIAA at 33 hour greater than at 2 hour ([1]; CIS-treated group): 49.2%
- peak immediate phase of emesis (Least Shrew; CIS 5 mg/kg, i.p.): third hour
- mealworms eaten vs control (Least Shrew; CIS 5 mg/kg, first night): ate significantly more
- time of maximal mean frequency of emesis, delayed phase (Least Shrew; [4]): 33 h
- time of maximal mean frequency of emesis, immediate phase (Least Shrew; [4]): 2 h and 2 to 3 h
- mealworms eaten vs control (Least Shrew; CIS 10 mg/kg, day 1): ate significantly more
- mealworms eaten vs control (Least Shrew; CIS 10 mg/kg, day 2): ate significantly less
- frequency of abdominal contractions vs vehicle (Least Shrew; CIS 10 mg/kg, delayed phase): greater frequencies
- frequency of dry emesis vs vehicle control (Least Shrew; CIS 10 mg/kg, delayed phase): greater frequencies
- total frequency of emesis vs vehicle control (Least Shrew; CIS 10 mg/kg): significantly different
- frequency of wet emesis vs control (Least Shrew; CIS 10 mg/kg, immediate phase): significantly greater frequencies
- time from which animals expired (Least Shrew; CIS 20 mg/kg, i.p., post-CIS exposure): ≥ 30 h
- mealworms eaten vs control (Least Shrew; CIS 20 mg/kg, day 1): ate less
- mealworms eaten vs control (Least Shrew; CIS 20 mg/kg, day 2): ate significantly less
- frequency of abdominal contractions vs vehicle (Least Shrew; CIS 20 mg/kg, delayed phase): greater frequencies
- mealworms eaten vs control (Least Shrew; CIS 20 mg/kg, first night): ate significantly less
- total frequency of emesis vs vehicle control (Least Shrew; CIS 20 mg/kg): significantly different
- frequency of dry vomiting vs vehicle control (Least Shrew; CIS 20 mg/kg, immediate phase): significantly greater frequencies
- frequency of wet emesis vs control (Least Shrew; CIS 20 mg/kg, immediate phase): significantly greater frequencies
- mean frequency of abdominal contractions vs vehicle (Least Shrew; CIS 20 mg/kg, immediate phase): significantly greater
- wet vomiting, dose effect (Least Shrew; CIS 5-20 mg/kg, delayed phase): no significant dose effect
- duodenal SP tissue levels ([2]; CIS 10 mg/kg, 2 and 33 hour): failed to exhibit a significant effect
- frontal cortex SP tissue levels vs vehicle ([2]; CIS 10 mg/kg, 2 hour): no significant difference
- increase in brainstem SP levels vs vehicle [2, 5]: 1396%
- increase in jejunal SP levels vs vehicle [2, 5]: 333%
- decrease in frontal cortex SP levels vs vehicle ([2]; CIS 10 mg/kg, 33 hour): 39.2%
- increase in brainstem SP levels vs vehicle [2, 6]: 956%
- increase in jejunal SP levels vs vehicle [2, 6]: 226.5%
- brainstem mean SP level lower at 33 hour than at 2 hour ([2]; CIS groups): 100%
